Laboratory results from patent US9029414B2, “Triterpenoid compounds and methods of use thereof” (Biotechnology Research Corporation, priority 2008, dated 2015).

What was measured:
[1] = tested on: MOG-induced IL-17 in primary splenocytes; assay: IL-17 Quantikine ELISA in primary splenocytes of EAE mice; format: cell-based; conditions: exogenous compound 30 μM; for decrease of IL-17 in response to exogenous compound: splenocytes of compound-treated EAE mice (100 mg/kg); for reduction in the amount of IL-17: splenocytes of vehicle-treated EAE mice, MOG 25 μg/mL, 48 hrs
Procedure: (§1) On day 21, EAE mice were sacrificed by cervical dislocation and spleens were removed aseptically. The removed spleens were then cut with sterilized scissors and strained through […] mesh (BD Bioscience) with a plunger of 5 mL syringe (BD Bioscience) in 9 mL of RPMI 1640 (Invitrogen) with 100 U/mL penicillin and 100 μg/mL streptomycin (Sigma). The cell mixture was then added to 9 mL of Lympholyte (Cedarlane Laboratories) for gradient separation of splenocytes from red bloods cells by centrifugation at 1500 g for 20 min. After the centrifugation, the lympholyte layer containing splenocytes were carefully removed and washed with 10 mL of RPMI 1640 at 800 g for 10 min for three times. The isolated splenocytes were seeded onto different plate format and cultured with RPMI 1640 medium (Invitrogen) supplement with 10% heat inactivated fetal bovine serum (Invitrogen) and 100 U/mL penicillin and 100 μg/mL streptomycin at 37° C. CO2 incubator.
Splenocytes from EAE mice were cultured at the density of 1×10^6 cells in 12-well plates (Falcon) in the absence or presence of the MOG peptide (25 μg/mL) (Hooke Laboratories), DA001 and DA021 (30 μM) with RPMI 1640 medium (Invitrogen) supplement with 10% heat inactivated fetal bovine serum (Invitrogen) and 100 U/mL penicillin and 100 μg/mL streptomycin (Sigma) for 48 h. After 48 h, the supernatants were collected by pelleting the cells at 300 g for 10 min at 4° C. 50 μL of the each sample was added to the microtiter plate provided by the manufacturer of the Quantikine ELISA assay kit (R and D systems). Additional 50 μL of assay diluents buffer was added and incubated at room temperature for 2 h. […] Subsequently, 100 μL of stop solution was added to each well and the plate was read in 450 nm wavelength on a microplate reader (Dynex Revelation 2.2).
(§2) Cells were cultured in RPMI 1640 medium supplement with 10% heat inactivated fetal bovine serum and penicillin/streptomycin, in the absence or presence of MOG (25 μg/mL, Ex) with or without DA001 or DA021 (30 μM, Ex). […] The amount of IL-17 was calculated based on the standard curve established during the assay. […]
as §2, with “DA001” for “DA001 or DA021”
as §2, with “without” for “without DA001 or”

[2] = tested on: MOG-induced IL-6 in primary splenocytes; assay: IL-6 Quantikine ELISA in primary splenocytes of EAE mice; format: cell-based; conditions: exogenous compound 30 μM; for amount of IL-6 in response to exogenous compound: splenocytes of compound-treated EAE mice (100 mg/kg); for reduction in the amount of MOG-induced IL-6: splenocytes of vehicle-treated EAE mice, MOG 25 μg/mL, 48 hrs
Procedure: as §1
Splenocytes from EAE mice were cultured at the density of 1×10^6 cells in 12-well plates (Falcon) in the absence or presence of the MOG peptide (25 μg/mL) (Hooke Laboratories), DA001 and DA021 (30 μM) with RPMI 1640 medium (Invitrogen) supplement with 10% heat inactivated fetal bovine serum (Invitrogen) and 100 U/mL penicillin and 100 μg/mL streptomycin (Sigma) for 48 h. After 48 h, the supernatants were collected by pelleting the cells at 300 g for 10 min at 4° C. 50 μL of the each sample was added to the microtiter plate provided by the manufacturer of the Quantikine ELISA assay kit (R and D systems). Additional 50 μL of assay diluents buffer was added and incubated at room temperature for 2 h. After the incubation, the supernatants were discarded and the cells were washed with wash buffer. […] Subsequently, 100 μL of stop solution was added to each well and the plate was read in 450 nm wavelength on a microplate reader (Dynex Revelation 2.2).
as §2, with “IL-6” for “IL-17”
as §2, with “DA001” for “DA001 or DA021”, “IL-6” for “IL-17”
as §2, with “without” for “without DA001 or”, “IL-6” for “IL-17”

C=C(C)[C@@H]1CC[C@]2(C(=O)O)CC[C@]3(C)C(CC[C@@H]4[C@@]5(C)CC[C@H](O[C@@H]6OC[C@H](O)[C@H](O)[C@H]6O[C@@H]6O[C@@H](C)[C@H](O)[C@@H](O)[C@H]6O)[C@@](C)(CO)[C@@H]5CC[C@]43C)[C@@H]12 (stereo partly drawn) [DA001, 3-O-[α-L-rhamnopyranosyl-(1→2)-α-L-arabinopyranosyl]-3,23-dihydroxy-20(29)-lupen-28-oic acid]
decrease of IL-17 in response to exogenous compound [1]: 51%
reduction in the amount of IL-17 [1]: 65%
amount of IL-6 in response to exogenous compound [2]: markedly decreased
reduction in the amount of MOG-induced IL-6 [2]: 73%

C=C(C)[C@@H]1CC[C@]2(/C=N/O)CC[C@]3(C)C(CCC4[C@@]5(C)CCC(=O)[C@@](C)(CO)[C@@H]5CC[C@]43C)C12 (some centres unmarked) [DA021]
decrease of IL-17 in response to exogenous compound [1]: 89%
reduction in the amount of IL-17 [1]: 68%
amount of IL-6 in response to exogenous compound [2]: markedly decreased
reduction in the amount of MOG-induced IL-6 [2]: 79%
